Laboratory results from publication PMC8796707 (ACS chemical biology, 2020).
Where two headings read alike, the source gives them in different places.

Key:
[1] = tested on: dK (dL5(E52K)); assay type: binding
[2] = tested on: HEK293 cells expressing HT-TM-mCer3 (HaloTag); assay type: cell-based; conditions: 500 nM dye, washed 6×, then 1 μM dL5**
[3] = tested on: HaloTag (HT) protein fusion; assay: Binding to purified HaloTag protein fusion, denaturing SDS-PAGE
[4] = tested on: FRB-HT/dK-FKBP; assay: Rapamycin chemical inducer of dimerization; assay type: biochemical; conditions: 100 nM dK fusion, 200 nM HT fusion, 250 nM rapamycin, 10 nM DAPA
Chain of FRB-HT/dK-FKBP (P42345 2012-2144 limits assumed): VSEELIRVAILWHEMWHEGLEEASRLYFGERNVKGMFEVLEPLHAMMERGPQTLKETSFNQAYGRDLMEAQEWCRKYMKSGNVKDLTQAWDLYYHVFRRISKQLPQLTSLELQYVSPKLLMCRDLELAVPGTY
Chain of FRB-HT/dK-FKBP (P62942 2-108 limits assumed, further chain): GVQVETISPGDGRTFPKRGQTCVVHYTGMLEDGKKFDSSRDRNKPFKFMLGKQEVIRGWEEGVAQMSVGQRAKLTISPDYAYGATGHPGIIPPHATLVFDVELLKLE

[5] = tested on: HEK293 cells expressing NLS-dL5**; assay: Cell permeability testing: labeling of nuclear localized FAP; assay type: cell-based; conditions: flow cytometry, 100 nM dye, normalized to MG-nBu
[6] = tested on: dL5**; assay: Binding kinetics and affinity of dye to purified FAP; conditions: SD, N = 4
[7] = tested on: HEK293 cells expressing dK-TM coplated with HT-TM-mCer3 cells; conditions: 10 nM DAPA dye
[8] = tested on: HEK293 cells expressing dL5**-TM coplated with HT-TM-mCer3 cells
[9] = tested on: dK-FRB/FKBP-HT; assay: Rapamycin chemical inducer of dimerization; assay type: biochemical; conditions: 100 nM dK fusion, 200 nM HT fusion, 250 nM rapamycin, 10 nM DAPA
Chain of dK-FRB/FKBP-HT (P42345 2021-2113 limits assumed): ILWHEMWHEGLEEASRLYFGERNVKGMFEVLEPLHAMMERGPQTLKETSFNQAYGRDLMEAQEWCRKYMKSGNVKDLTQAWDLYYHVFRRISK
Chain of dK-FRB/FKBP-HT (P62942 2-108 limits assumed, further chain): as the sequence (P62942 2-108 limits assumed, further chain) above

MG-PEG3500-HexCl [DAPA]
off rate, koff, dK ([1]; SD, N = 4): 53 ± 2 ×10^−4 s^−1 | on rate, kon, dK ([1]; SD, N = 4): 0.39 ± 0.03 ×10^6 M^−1 s^−1 | difference in FAP/DAPA KD between dL5** and dK ([1]; dK versus dL5**): ~ 500 fold | Kd ([1]; read-out: dissociation constant, KD, dK, KD = koff/kon, SD, N = 4): 13.7 ± 0.5 nM | labeling of HaloTag expressing cells [2]: specifically labeled mCer3 positive cells | binding to purified HaloTag protein fusion [3]: irreversibly bind | increase in FAP–DAPA signal for rapamycin induced dimerization [4]: 50% | NLS-dL5** labeling signal relative to MG-nBu signal [5]: 5% | off rate, koff, dL5** [6]: 1.23 ± 0.06 ×10^−4 s^−1 | on rate, kon, dL5** [6]: 3.2 ± 0.2 ×10^6 M^−1 s^−1 | signal increase at the contact site versus the noncontact site [7]: 40 fold | ratio between contact and noncontact signal ([8]; 100 nM DAPA dye): 1.9 | ratio between contact and noncontact signal ([8]; DAPA dye between 0.5 nM and 10 nM): > 3.8 | increase in FAP–DAPA signal for rapamycin induced dimerization [9]: 100%
